Experimental findings from patent publication US9765074B2, “Inhibitors of the renal outer medullary potassium channel” (Merck Sharp & Dohme Corp., priority 2013, dated 2017) are described below.

The target in this experiment is T1, hROMK (hKir1.1) (Homo sapiens, UniProt P48048).
T1 construct: expressed in transfected cells
T1 sequence (P48048 1-391): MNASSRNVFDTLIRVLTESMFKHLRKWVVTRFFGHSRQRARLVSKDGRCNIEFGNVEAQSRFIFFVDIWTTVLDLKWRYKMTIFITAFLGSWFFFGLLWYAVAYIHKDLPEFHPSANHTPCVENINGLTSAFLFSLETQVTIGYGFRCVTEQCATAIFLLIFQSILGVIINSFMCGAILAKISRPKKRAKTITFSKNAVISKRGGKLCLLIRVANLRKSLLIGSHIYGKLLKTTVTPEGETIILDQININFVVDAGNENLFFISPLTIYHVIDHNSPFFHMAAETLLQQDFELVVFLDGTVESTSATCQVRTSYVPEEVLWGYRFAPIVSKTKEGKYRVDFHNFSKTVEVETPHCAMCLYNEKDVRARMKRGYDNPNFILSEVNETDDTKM
Description: Thallium Flux Assay (ROMK channel functional thallium flux, FLIPR-Tetra). It counts as cell-based. Particulars: HEK293 cells stably expressing hROMK (hKir1.1); 30 min compound incubation. In a few lines: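 Thallium flux read by FluxOR fluorescence ([…]) for ~10 min after adding 3 mM Tl+/0.3 mM K+ final. Stable HEK-hKir1.1 cells were dye-loaded 90 min, exposed to compound 30 min at room temperature in ouabain/probenecid buffer; IC50 relative to a 3 μM control inhibitor.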
Take `CC1=C(N2CCC3(CCN(C[C@H](O)c4cc(-n5cnnn5)ccn4)CC3)C2=O)COC1=O` [Example 72, 8-{(2S)-2-hydroxy-2-[4-(1H-tetrazol-1-yl)pyridin-2-yl]ethyl}-2-(4-methyl-5-oxo-2,5-dihydrofuran-3-yl)-1-oxo-2-aza-8-azoniaspiro[4.5]decane]: 0.04 µM corresponded to half-maximal inhibition (IC50).

With `CC1=C(N2CCC3(CCN(C[C@H](O)c4cccc(-n5cnnn5)n4)CC3)C2=O)COC1=O` [Example 73, 8-{(2S)-2-hydroxy-2-[6-(1H-tetrazol-1-yl)pyridin-2-yl]ethyl}-2-(4-methyl-5-oxo-2,5-dihydrofuran-3-yl)-1-oxo-2-aza-8-azoniaspiro[4.5]decane], the IC50 turned out to be 0.17 µM.

As for `CC1=C(N2CCC3(CCN(C[C@@H](O)c4cccc(-n5cnnn5)n4)CC3)C2=O)COC1=O` [Example 74, 8-{(2R)-2-hydroxy-2-[6-(1H-tetrazol-1-yl)pyridin-2-yl]ethyl}-2-(4-methyl-5-oxo-2,5-dihydrofuran-3-yl)-1-oxo-2-aza-8-azoniaspiro[4.5]decane], the IC50 is 0.09 µM.

The compound `CC1=C(N2CCC3(CCN(C[C@H](O)c4cncc(-n5cnnn5)n4)CC3)C2=O)COC1=O` [Example 75, 8-{(2S)-2-hydroxy-2-[6-(1H-tetrazol-1-yl)pyrazin-2-yl]ethyl}-2-(4-methyl-5-oxo-2,5-dihydrofuran-3-yl)-1-oxo-2-aza-8-azoniaspiro[4.5]decane] showed an IC50 of 0.44 µM.

Compound `CC1=C(N2CCC3(CCN(C[C@H](O)c4c(F)cc(-n5cnnn5)cc4F)CC3)C2=O)COC1=O` [Example 76, 8-{(2R)-2-[2,6-difluoro-4-(1H-tetrazol-1-yl)phenyl]-2-hydroxyethyl}-2-(4-methyl-5-oxo-2,5-dihydrofuran-3-yl)-1-oxo-2-aza-8-azoniaspiro[4.5]decane] yielded an IC50 of 0.02 µM.

`C[C@H]1CC2(CCN(C[C@H](O)c3cnc(-n4cnnn4)cn3)CC2)C(=O)N1C1=CC(=O)OC1` [Example 77, (3S)-8-{(2S)-2-hydroxy-2-[5-(1H-tetrazol-1-yl)pyrazin-2-yl]ethyl}-3-methyl-1-oxo-2-(5-oxo-2,5-dihydrofuran-3-yl)-2-aza-8-azoniaspiro[4.5]decane] yielded an IC50 of 0.01 µM.

`C[C@H]1CC2(CCN(C[C@@H](O)c3cnc(-n4cnnn4)cn3)CC2)C(=O)N1C1=CC(=O)OC1` [Example 78, (3S)-8-{(2R)-2-hydroxy-2-[5-(1H-tetrazol-1-yl)pyrazin-2-yl]ethyl}-3-methyl-1-oxo-2-(5-oxo-2,5-dihydrofuran-3-yl)-2-aza-8-azoniaspiro[4.5]decane]: the half-maximal inhibitory concentration (IC50) is 0.01 µM.

In turn, `C[C@@H]1CC2(CCN(C[C@H](O)c3cnc(-n4cnnn4)cn3)CC2)C(=O)N1C1=CC(=O)OC1` [Example 79, (3R)-8-{(2S)-2-hydroxy-2-[5-(1H-tetrazol-1-yl)pyrazin-2-yl]ethyl}-3-methyl-1-oxo-2-(5-oxo-2,5-dihydrofuran-3-yl)-2-aza-8-azoniaspiro[4.5]decane] had an IC50 of 0.1 µM.

On to `C[C@@H]1CC2(CCN(C[C@@H](O)c3cnc(-n4cnnn4)cn3)CC2)C(=O)N1C1=CC(=O)OC1` [Example 80, (3R)-8-{(2R)-2-hydroxy-2-[5-(1H-tetrazol-1-yl)pyrazin-2-yl]ethyl}-3-methyl-1-oxo-2-(5-oxo-2,5-dihydrofuran-3-yl)-2-aza-8-azoniaspiro[4.5]decane], for which the midpoint of inhibition, the IC50, lay at 0.13 µM. This IC50 and that of the compound before are within 1.5-fold of each other.

On to `C[C@H]1CC2(CCN(C[C@H](O)c3ccc(-n4cnnn4)nc3)CC2)C(=O)N1C1=CC(=O)OC1` [Example 81, (3S)-8-{(2R)-2-hydroxy-2-[6-(1H-tetrazol-1-yl)pyridin-3-yl]ethyl}-3-methyl-1-oxo-2-(5-oxo-2,5-dihydrofuran-3-yl)-2-aza-8-azoniaspiro[4.5]decane], for which the IC50 came out at 0.01 µM.

As for `C[C@H]1CC2(CCN(C[C@@H](O)c3ccc(-n4cnnn4)nc3)CC2)C(=O)N1C1=CC(=O)OC1` [Example 82, (3S)-8-{(2S)-2-hydroxy-2-[6-(1H-tetrazol-1-yl)pyridin-3-yl]ethyl}-3-methyl-1-oxo-2-(5-oxo-2,5-dihydrofuran-3-yl)-2-aza-8-azoniaspiro[4.5]decane], the IC50 turned out to be 0.01 µM. That is a double-digit nanomolar value.

The compound `C[C@@H]1CC2(CCN(C[C@H](O)c3ccc(-n4cnnn4)nc3)CC2)C(=O)N1C1=CC(=O)OC1` [Example 83, (3R)-8-{(2R)-2-hydroxy-2-[6-(1H-tetrazol-1-yl)pyridin-3-yl]ethyl}-3-methyl-1-oxo-2-(5-oxo-2,5-dihydrofuran-3-yl)-2-aza-8-azoniaspiro[4.5]decane] displayed an IC50 of 0.01 µM.

Regarding `C[C@@H]1CC2(CCN(C[C@@H](O)c3ccc(-n4cnnn4)nc3)CC2)C(=O)N1C1=CC(=O)OC1` [Example 84, (3R)-8-{(2S)-2-hydroxy-2-[6-(1H-tetrazol-1-yl)pyridin-3-yl]ethyl}-3-methyl-1-oxo-2-(5-oxo-2,5-dihydrofuran-3-yl)-2-aza-8-azoniaspiro[4.5]decane], inhibition was half-maximal at 0.01 µM (IC50).

Take `CC1=C(N2CCC3(CCN(C[C@H](O)c4cnc(-n5cnnn5)nc4C)CC3)C2=O)COC1=O` [Example 85, 8-{(2R)-2-hydroxy-2-[4-methyl-2-(1H-tetrazol-1-yl)pyrimidin-5-yl]ethyl}-2-(4-methyl-5-oxo-2,5-dihydrofuran-3-yl)-1-oxo-2-aza-8-azoniaspiro[4.5]decane]: inhibition was half-maximal at 0.03 µM (IC50).

Take `CC1=C(N2CCC3(CCN(C[C@@H](O)c4cnc(-n5cnnn5)nc4C)CC3)C2=O)COC1=O` [Example 86, 8-{(2S)-2-hydroxy-2-[4-methyl-2-(1H-tetrazol-1-yl)pyrimidin-5-yl]ethyl}-2-(4-methyl-5-oxo-2,5-dihydrofuran-3-yl)-1-oxo-2-aza-8-azoniaspiro[4.5]decane]: 0.04 µM corresponded to half-maximal inhibition (IC50).

As for `CC1=C(N2CCC3(CCN(C[C@H](O)c4cnc(-n5cnnn5)c(C)n4)CC3)C2=O)COC1=O` [Example 87, 8-{(2S)-2-hydroxy-2-[6-methyl-5-(1H-tetrazol-1-yl)pyrazin-2-yl]ethyl}-2-(4-methyl-5-oxo-2,5-dihydrofuran-3-yl)-1-oxo-2-aza-8-azoniaspiro[4.5]decane], 0.05 µM corresponded to half-maximal inhibition (IC50).

Take `CC1=C(N2CCC3(CCN(C[C@@H](O)c4cnc(-n5cnnn5)c(C)n4)CC3)C2=O)COC1=O` [Example 88, 8-{(2R)-2-hydroxy-2-[6-methyl-5-(1H-tetrazol-1-yl)pyrazin-2-yl]ethyl}-2-(4-methyl-5-oxo-2,5-dihydrofuran-3-yl)-1-oxo-2-aza-8-azoniaspiro[4.5]decane]: the IC50 was 0.04 µM.

Compound `COc1cc(-n2cnnn2)ncc1[C@@H](O)CN1CCC2(CC1)CCN(C1=C(C)C(=O)OC1)C2=O` [Example 93, 8-{(2R)-2-hydroxy-2-[4-methoxy-6-(1H-tetrazol-1-yl)pyridin-3-yl]ethyl}-2-(4-methyl-5-oxo-2,5-dihydrofuran-3-yl)-1-oxo-2-aza-8-azoniaspiro[4.5]decane] displayed an IC50 of 0.03 µM.

With `COc1cc(-n2cnnn2)ncc1[C@H](O)CN1CCC2(CC1)CCN(C1=C(C)C(=O)OC1)C2=O` [Example 94, 8-{(2S)-2-hydroxy-2-[4-methoxy-6-(1H-tetrazol-1-yl)pyridin-3-yl]ethyl}-2-(4-methyl-5-oxo-2,5-dihydrofuran-3-yl)-1-oxo-2-aza-8-azoniaspiro[4.5]decane], 0.02 µM corresponded to half-maximal inhibition (IC50).

In the case of `CC1=C(N2CCC3(CCN(C[C@H](O)c4ccc(-n5cnnn5)c(C#N)c4)CC3)C2=O)COC1=O` [Example 95, 8-{(2R)-2-[3-cyano-4-(1H-tetrazol-1-yl)phenyl]-2-hydroxyethyl}-2-(4-methyl-5-oxo-2,5-dihydrofuran-3-yl)-1-oxo-2-aza-8-azoniaspiro[4.5]decane], the IC50 is 0.05 µM.

`CC1=C(N2CCC3(CCN(C[C@@H](O)c4ccc(-n5cnnn5)c(C#N)c4)CC3)C2=O)COC1=O` [Example 96, 8-{(2S)-2-[3-cyano-4-(1H-tetrazol-1-yl)phenyl]-2-hydroxyethyl}-2-(4-methyl-5-oxo-2,5-dihydrofuran-3-yl)-1-oxo-2-aza-8-azoniaspiro[4.5]decane] registered an IC50 of 0.07 µM.

As to `CC1=C(N2CC(=O)C3(CCN(C[C@H](O)c4ccc(-n5cnnn5)nc4)CC3)C2=O)COC1=O` [Example 97, 8-{(2R)-2-hydroxy-2-[6-(1H-tetrazol-1-yl)pyridin-3-yl]ethyl}-2-[4-methyl-5-oxo-2,5-dihydrofuran-3-yl)-1,4-dioxo-2-aza-8-azoniaspiro[4.5]decane], the IC50 was 0.02 µM.

As for `CC1=C(N2CCC3(CCN(C[C@H](O)c4ncc(-n5cnnn5)nc4C)CC3)C2=O)COC1=O` [Example 98, 8-{(2S)-2-hydroxy-2-[3-methyl-5-(1H-tetrazol-1-yl)pyrazin-2-yl]ethyl}-2-(4-methyl-5-oxo-2,5-dihydrofuran-3-yl)-1-oxo-2-aza-8-azoniaspiro[4.5]decane], half-maximal inhibition (IC50) required 0.04 µM.

The compound `CC1=C(N2CCC3(CCN(C[C@@H](O)c4ncc(-n5cnnn5)nc4C)CC3)C2=O)COC1=O` [Example 99, 8-{(2R)-2-hydroxy-2-[3-methyl-5-(1H-tetrazol-1-yl)pyrazin-2-yl]ethyl}-2-(4-methyl-5-oxo-2,5-dihydrofuran-3-yl)-1-oxo-2-aza-8-azoniaspiro[4.5]decane] came in with an IC50 of 0.05 µM. The IC50 values of the last two compounds are within 1.5-fold of each other.

For the compound `CC1=C(N2CCC3(CC4CN(C)CC(C3)N4C[C@H](O)c3ccc(-n4cnnn4)nc3)C2=O)COC1=O` (stereo partly drawn) [Example 112, (1R,5R,7R,9R)-9-{(2R)-2-hydroxy-2-[6-(1H-tetrazol-1-yl)pyridin-3-yl]ethyl}-7-methyl-1′-(4-methyl-5-oxo-2,5-dihydrofuran-3-yl)-2′-oxospiro[7,9-diazoniabicyclo[3.3.1]nonane-3,3′-pyrrolidine]], the IC50 came out at 0.41 µM. Against the preceding compound, the IC50 is about 8.2-fold higher.
